Measurements taken from patent US20160045487A1, “COMPOSITIONS AND METHODS FOR TREATING NEUROPATHY” (CHILDEREN'S MEDICAL CENTER CORPORATION, priority 2013, published 2016).

Legend:
Assay type in all cases: in vivo, mouse
GFAP-DN-erbB4 mice [1] = assay: IB4 staining of C-fiber terminals in lamina II of spinal cord dorsal horn; settings: cream P28-P35; n=6
Method: (§1) However, in the clinic, therapy would almost certainly begin after patients present with symptoms of SFN. Therefore, it was determined whether topical XIB4035 can act as a disease-modifying agent in the GFAP-DN-erbB4 neuropathy model starting after animals are clearly symptomatic (P28). […] While IB4 labeling in mutant mice was lower than wild types regardless of treatment, IB4 signal was clearly present in mutant mice treated with XIB4035 while absent in those treated with control cream (FIG. 3D; 83% of XIB4035 treated mice (n=6) with IB4+ lamina II terminals vs 0% (n=4) in control treated mice) (FIG. 3D).
Spinal cords were collected from mice anesthetized with 2.5% Avertin, immersion fixed in 4% paraformaldehyde in 0.1 M phosphate buffer (pH 7.4) for 2 hours at 4° C., and cryoprotected in 20% sucrose overnight at 4° C. Tissue was embedded in OCT, sectioned at 15 μm, and stained mounted on slides. Tissue was blocked for 30 minutes in 0.1M PB+0.3% Triton-X 100+10% normal goat serum and incubated with TrpV1 rabbit polyclonal antibody (AbCAM, 1:2000) and Alexa-488 conjugated isolectin-B4 overnight at 4° C. Sections were washed 3 times for 30 minutes in 0.1M PB+0.3% Triton-X 100+10% normal goat serum followed by incubation with goat anti-rabbit Alexa-594 (Invitrogen) 1:1000 for 1 hour at room temperature.
Spinal cord images were acquired using a Zeiss Axioscope microscope. […]

GFAP-DN-erbB4 mice [2] = assay: PGP9.5-positive IENF density in hind paw skin; settings: treatment initiated after disease onset (P28), read at P35
Method: as §1
Mice were anesthetized with 2.5% Avertin. Hind paws were removed, immersion fixed in 2% paraformaldehyde, 14% picric acid in 0.1 M phosphate buffer (pH 7.4) overnight at 4° C., and cryoprotected in 20% sucrose overnight at 4° C. Footpad skin was dissected from hind paws, embedded in OCT, sectioned at 30 μm, and stained as floating sections. […]
Skin section images were acquired as 30 μm Z-stacks (1 μm intervals) and processed as maximum intensity projections using a Zeiss LSM 700 microscope and ZEN software. […] A measured line was drawn using the DAPI channel to delineate the border between basal keratinocytes and outer layers of the epidermis. All PGP9.5 positive IENFs crossing the border were counted and expressed as a number per 100 μm length. […]

[3] = test system: STZ-induced diabetic mice; assay: Hargreaves thermal nociception test in STZ-induced diabetic mice; settings: topical cream for 16 weeks from hyperglycemia; tests from week 8
Description: To explore the utility of XIB4035 in a more clinically relevant model, diabetic peripheral neuropathy was selected because more than 50% of all diabetic patients develop some form of peripheral neuropathy, particularly SFN. Streptozotocin (STZ) induced diabetic model was chosen, in which a single injection of STZ kills pancreatic beta cells causing diabetes and produces SFN symptoms several weeks later. Upon becoming hyperglycemic, STZ injected mice were topically treated daily with either control or XIB4035 containing cream for 16 weeks. Thermal nociceptive tests began 8 weeks after initiation of treatment and were repeated every two weeks.
(§2) Adult female C57 Bl/6J mice were made diabetic (blood glucose >15 mmol/L) by injection of STZ (90 mg/kg i.p.) on two consecutive days, with confirmation of hyperglycemia made 7 days after STZ delivery. Paw thermal response latency of the right paw was measured every two weeks from weeks 8-16 of diabetes using a modified Hargeaves test, as described
The cream containing XIB4035 (1.5 mM, ZereneX Molecular Ltd., Manchester, UK) consisted of N-methyl-pyrrolidone (6.25%), isopropyl myristate (6.25%) and petroleum jelly (87.5%). Control cream had the same ingredients without XIB4035. Cream was applied twice daily to the hind paws of mice starting at P21 for a period of 4 weeks for prophylactic treatment of GFAP-DN-erbB4. […]

[4] = test system: diabetic mice (STZ model); assay: Sub-epidermal neural plexus density in papillary dermis of STZ diabetic mice; settings: cream from hyperglycemia for 16 weeks
Method: To examine SNP, normo-glycemic or diabetic mice (STZ model) were treated with either vehicle cream of cream containing XIB4035 from the moment they became hyperglycemic, for 16 weeks. At the end of this treatment period, the density of sub-epidermal fibers in papillary dermis was measured in papillary dermis. It was thereby identified that sub-epidermal neural plexus (SNP) density was reduced in diabetic mice not administered XIB, but was preserved in diabetic mice that had received XIB4035 treatment (FIG. 10).
as §2

[5] = test system: diabetic mice (STZ model); assay: Nerve conduction velocity in sciatic nerves of STZ diabetic mice; settings: cream from hyperglycemia for 16 weeks
Method: To examine NCV, normo-glycemic or diabetic mice (STZ model, as described elsewhere herein) were treated with either vehicle cream or with cream containing XIB4035 from the moment they became hyperglycemic, for 16 weeks. At the end of this period, nerve conduction velocity (NCV) was measured in sciatic nerves.
as §2

Question: How did the “treated mice with IB4+ lamina II terminals” value (GFAP-DN-erbB4 mice [1]) turn out when `CCN(CC)CCCC(C)Nc1cc(/C=C/c2ccccc2Cl)nc2cc(Cl)ccc12` (centres unmarked) [XIB4035, N4-{7-chloro-2-[(E)-2-(2-chloro-phenyl)-vinyl]-quinolin-4-yl}-N1,N1-diethyl-pentane-1,4-diamine] was run?
Answer: 83%

Question: What about the “IENF density in hind paw skin” value (GFAP-DN-erbB4 mice [2]) of the same molecule?
Answer: did not rescue IENF density

Question: And the “sensory function (thermal nociceptive tests)” value [3]?
Answer: better sensory function than those exposed to the control cream

Question: What about the “sub-epidermal neural plexus (SNP) density” value [4] of the same molecule?
Answer: preserved

Question: And the “nerve conduction velocity (NCV) in sciatic nerves” value [5]?
Answer: not statistically different from that observed in control animals
